Reference: patent US20250099625A1, “TANDEM MOLECULAR FLUORESCENCE REPORTERS FOR DETECTION OF TUMOR-INFILTRATING LEUKOCYTES” (Nanyang Technological University, priority 2021, published 2025)

System: 4T1 tumor
Assay: Therapeutic efficacy, 4T1 tumor-bearing mice
Method: (c) Tumor growth curves (n=6) and (d) overall survival curves (n=6) of 4T1 tumor-bearing mice. […] 95% confidence intervals were obtained by two-sided Student t-test analysis. […] Data are presented as mean±SD and analyzed by two-tailed Student's t-test.
FIG. 47 depicts the tumor control rate and body weights of mice. […] (c) Body weights of 4T1 tumor-bearing mice after intraperitoneal injection of saline, Oxa (6 mg/kg), aPD-L1 (10 mg/kg) and aPD-L1/Oxa at day 0, 2 and 4. […] Statistical significance was performed by two-tailed Student's t-test. ns: not significant, *P<0.05, **P<0.01, ***P<0.001, ****P<0.0001.
After tumor inoculation for one week, 4T1 tumor-bearing mice were administrated with aPD-L1 (10 mg/kg), Oxa (6 mg/kg) or the combination of aPD-L1 and Oxa (aPD-L1/Oxa) intraperitoneally every two days for three times.
The tumor control rate was calculated with the following formulas:
Vt0 means the volume of tumor on day 0, Vt means the volume at certain time, c means the control group (saline, without irradiation), and s means the group needed calculation.

Structure (SMILES): O=C1[O][Pt]2([NH][C@@H]3CCCC[C@H]3[NH]2)[O]C1=O [Oxa, oxaliplatin]
- survival rate: 50%
- tumor control rate (TCR) (intraperitoneal, every two days for three times): 48%
